In patent US6413959B1, “Method of treating depression with arylglycinamide derivatives” (Boehringer Ingelheim KG, priority 1995, dated 2002):

Key:
[1] = target: T1, NK1-receptor (substance P-receptor) (Homo sapiens, UniProt P25103); assay: NK1-receptor affinity, displacement of 125I-labelled substance P on IM-9 cells; format: binding; conditions: human lymphoblastoma cells (IM-9) with cloned NK1-receptors
T1 construct: expressed in transfected cells; host or cells: IM-9 human lymphoblastoma cells
T1 sequence (P25103 whole entry): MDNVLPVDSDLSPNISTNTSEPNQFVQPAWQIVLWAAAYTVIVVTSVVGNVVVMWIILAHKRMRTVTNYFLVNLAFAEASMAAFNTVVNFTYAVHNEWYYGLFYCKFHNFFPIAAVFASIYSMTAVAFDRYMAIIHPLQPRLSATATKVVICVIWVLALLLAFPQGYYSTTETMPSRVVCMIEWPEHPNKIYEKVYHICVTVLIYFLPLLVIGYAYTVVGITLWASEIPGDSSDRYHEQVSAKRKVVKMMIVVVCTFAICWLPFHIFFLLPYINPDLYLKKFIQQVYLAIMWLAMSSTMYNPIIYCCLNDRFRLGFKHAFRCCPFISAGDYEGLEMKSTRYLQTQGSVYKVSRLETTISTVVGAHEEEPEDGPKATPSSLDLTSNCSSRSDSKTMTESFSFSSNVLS

[2] = target: T2, NK1 (Cavia porcellus, UniProt P30547); assay: Inhibition of the lowering of blood pressure caused by NK1 in anaesthetised guinea pigs; format: in vivo; conditions: guinea pig, iv, antagonist given by intraduodenal route, NK1-agonist [βAla4, Sar9, Met(O2)11] SP(4-11) 0.2 μmol/kg i.v., read-out: ID50 (dose which inhibits the lowering of blood pressure caused by the NK1-agonist by 50%)
T2 construct: Guinea pigs weighing 300-500 grams were anaesthetised with pentobarbital; from tissue; host or cells: whole anaesthetised guinea pig (in vivo)
T2 sequence (P30547 whole entry): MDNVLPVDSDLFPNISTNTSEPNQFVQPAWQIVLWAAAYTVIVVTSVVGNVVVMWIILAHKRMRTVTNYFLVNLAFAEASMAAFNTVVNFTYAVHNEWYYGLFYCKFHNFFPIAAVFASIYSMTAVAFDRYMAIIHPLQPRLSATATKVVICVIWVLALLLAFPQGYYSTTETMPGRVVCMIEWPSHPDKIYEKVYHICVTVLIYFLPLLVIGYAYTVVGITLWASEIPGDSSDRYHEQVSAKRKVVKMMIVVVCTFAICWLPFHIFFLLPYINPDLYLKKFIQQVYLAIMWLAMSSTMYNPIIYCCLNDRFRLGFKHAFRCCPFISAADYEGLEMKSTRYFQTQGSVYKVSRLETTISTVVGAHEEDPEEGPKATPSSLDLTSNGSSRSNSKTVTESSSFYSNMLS

Structure (SMILES): O=C(NCCc1cc(C(F)(F)F)cc(C(F)(F)F)c1)C(c1ccccc1)N1CCN(C2CCCCC2)CC1 (stereo not drawn) [Example 3]
- Ki [1]: 1.4 nM
- melting point: 235 to 238 °C

Structure (SMILES): CN(Cc1cc(C(F)(F)F)cc(C(F)(F)F)c1)C(=O)C(c1ccccc1)N1CCN(C2CCCCC2)CC1 (stereo not drawn) [Example 4]
- Ki [1]: 1 nM
- melting point: > 240 °C (dec.)

Structure (SMILES): CN(CCc1cc(C(F)(F)F)cc(C(F)(F)F)c1)C(=O)C(c1ccccc1)N1CCN(C2CCCCC2)CC1 (stereo not drawn) [Example 5]
- Ki [1]: 1.3 nM
- ED50 [2]: 1.4 mg/kg
- melting point: 158 to 164 °C

Structure (SMILES): CN(CCc1cc(C(F)(F)F)cc(C(F)(F)F)c1)C(=O)C(c1ccccc1)N1CCC(N2CCCC2)CC1 (stereo not drawn) [Example 52]
- Ki [1]: 1.1 nM
- melting point: 133 to 143 °C

Structure (SMILES): CN(CCc1cc(C(F)(F)F)cc(C(F)(F)F)c1)C(=O)C(c1ccccc1)N1CCN(C2CCCCCC2)CC1 (stereo not drawn) [Example 53]
- Ki [1]: 2.3 nM
- melting point: 110 to 120 °C

Structure (SMILES): CN(CCc1cc(C(F)(F)F)cc(C(F)(F)F)c1)C(=O)C(c1ccc(Cl)c(Cl)c1)N1CCN(C2CCCCC2)CC1 (stereo not drawn) [Example 58]
- Ki [1]: 6.4 nM
- melting point: 212 to 216 °C (dec.)

Structure (SMILES): CN(CCc1cc(C(F)(F)F)cc(C(F)(F)F)c1)C(=O)C(c1ccc(Cl)c(Cl)c1)N1CCC(N2CCCCC2)CC1 (stereo not drawn) [Example 59]
- Ki [1]: 4.2 nM
- melting point: 244 to 246 °C (dec.)

Structure (SMILES): CN(CCc1cc(C(F)(F)F)cc(C(F)(F)F)c1)C(=O)C(c1ccccc1)N1CCN(CCc2ccccc2)CC1 (stereo not drawn) [Example 65]
- Ki [1]: 9.2 nM
- melting point: 148 to 156 °C

Structure (SMILES): CN(CCc1cc(C(F)(F)F)cc(C(F)(F)F)c1)C(=O)C(c1ccccc1)N1CCN(CC2CC2)CC1 (stereo not drawn) [Example 66]
- Ki [1]: 1.4 nM
- melting point: 113 to 117 °C (dec.)

Structure (SMILES): CN(CCc1cc(C(F)(F)F)cc(C(F)(F)F)c1)C(=O)C(c1ccccc1)N1CCN(C2CCC2)CC1 (stereo not drawn) [Example 68]
- Ki [1]: 1.5 nM
- melting point: 236 to 238 °C (dec.)

Structure (SMILES): COc1ccc(C(C(=O)N(C)CCc2cc(C(F)(F)F)cc(C(F)(F)F)c2)N2CCN(C3CCCCC3)CC2)cc1OC (stereo not drawn) [Example 70]
- Ki [1]: 2.8 nM
- melting point: 123 to 133 °C (dec.)

Structure (SMILES): CN(CCc1cc(C(F)(F)F)cc(C(F)(F)F)c1)C(=O)C(c1ccc2c(c1)OCO2)N1CCN(C2CCCCC2)CC1 (stereo not drawn) [Example 71]
- Ki [1]: 2.1 nM
- melting point: 87 to 97 °C

Structure (SMILES): CCN(CCc1cc(C(F)(F)F)cc(C(F)(F)F)c1)C(=O)C(c1ccccc1)N1CCC(N2CCCCC2)CC1 (stereo not drawn) [Example 73]
- Ki [1]: 1.7 nM

Structure (SMILES): CN(CCc1ccc(C(F)(F)F)cc1C(F)(F)F)C(=O)C(c1ccccc1)N1CCC(N2CCCCC2)CC1 (stereo not drawn) [Example 74]
- Ki [1]: 11.8 nM

Structure (SMILES): CN(CCc1cc(C(F)(F)F)cc(C(F)(F)F)c1)C(=O)C(c1ccccc1)N1CCC(C#N)(c2ccccc2)CC1.Cl (stereo not drawn) [Example 75]
- Ki [1]: 180 nM
- melting point: 91 to 98 °C

Structure (SMILES): O=C(C(c1ccccc1)N1CCC(N2CCCCC2)CC1)N(CCc1cc(C(F)(F)F)cc(C(F)(F)F)c1)Cc1ccccc1 (stereo not drawn) [Example 76]
- Ki [1]: 7 nM
